From article PMC8474110 (Journal of Medicinal Chemistry, 2021) come the findings set out here.

Like-named read-outs stand apart in the source and are kept apart here.

Data set [1] in a line: Enzymatic stability (kinetics of enzymatic hydrolysis) in rat plasma. The settings on record: for half-life at 3.8 µM: plasma (80%), pH 7.4, read-out: t1/2, enzymatic stability (converted). Type of data set: in vitro ADME. As for the experimental part:
Enzymatic stability studies in rat and human plasma were performed for both the racemate and its enantiomers (Table 1). […] Considering the high stability of (±)-1 and its enantiomers in simulated physiological fluids and human plasma, these compounds could reach the target site without undergoing esterase metabolism.
Human plasma was purchased from 3H Biomedical (Uppsala, Sweden, Europe). Plasma aliquots (4 mL) were diluted with 0.02 M PBS (pH 7.4) to obtain a final volume of 5 mL containing 80% plasma. Studies were performed at 37 ± 0.5 °C using a shaking bath. Each experiment was started by adding a 10^–4 M drug stock solution (200 μL) to the preheated plasma. Hundred microliters of the thermostated medium was taken at various times, treated with cold methanol (500 μL) to precipitate plasma proteins, and centrifugated (5 min at 5000g). The supernatant was analyzed by HPLC to quantify the amount of the residual intact compound.

Data set [2] deals with HREC stimulated with VEGF-A. As to the kind of experiment: Wound healing assay (cell motility) in HREC stimulated by VEGF-A. Type of data set: cell-based, human. The settings on record: 48 h; for effect of AC927 cotreatment on the compound's inhibition of VEGF-A-mediated HREC motility: 5 μM compound + 2 μM AC927, 80 ng/mL VEGF-A; for effect of PTZ cotreatment on the compound's inhibition of VEGF-A-mediated HREC motility: 5 μM compound + 2 μM PTZ. As for the experimental part: Unregulated stimulation of endothelial cell motility by VEGF-A underlies pathological angiogenesis.[41] Therefore, the effects of (±)-1, (+)-1, and (−)-1 on HREC motility stimulated by VEGF-A (80 ng/mL) were evaluated with the wound healing assays (Figures 3 and S3–S5). VEGF-A promoted HREC migration compared to untreated controls, inducing complete wound closures at 24 h (Figures S3–S5). […] Cotreatments with both AC927 and PTZ reduced (±)-1 and (+)-1 abilities to inhibit VEGF-A-mediated wound healing (Figure 3A,B). […] The representative images of HREC treated with VEGF-A and three prodrug derivatives after the scratch wound are shown in the Supporting Information (Figures S2–S4A).
(§1) HREC and 92-1 cells (2.5 × 10^5 cells/well) were seeded into 24 well plates and grown to confluency. Confluent cell monolayers were scratched with a p200 pipet tip to create 1 mm wide wounds. After washing (three times) with PBS to remove cell debris, wounded monolayers were incubated for 48 h (37 °C) in the complete medium in the presence of the indicated treatments. HREC were treated for 48 h in the presence of (±)-1, (+)-1, or (−)-1 with or without VEGF-A (80 ng/mL), AC927, and PTZ. 92-1 cells were treated for 48 h in the presence of (±)-1, (+)-1, or (−)-1. Wound closure was monitored by photographs at 40X using a phase-contrast microscope in each culture condition and at each time point (0, 24, and 48 h for HREC and 0, 6, 24, 30, and 48 h for 92-1 cells). The numbers of cells toward the wounds were counted using ImageJ software (ImageJ 1.50e, National Institutes of Health, NIH, Bethesda, MD) and were quantified by measuring the distance traveled over time by both cell fronts into the wound area.

Data set [3] has as its system HREC stimulated with VEGF-A. The data set is described as follows: Tube formation assay (Matrigel) in HREC stimulated with VEGF-A. Type of data set: cell-based, human. The settings on record: 24 h; for effect on VEGF-A-stimulated tube formation in HREC: 5 μM. As for the experimental part:
To further explore effects on angiogenesis, tube formation assays with HREC were evaluated. Following seeding onto basement membranelike Matrigel and stimulation for 24 h with VEGF-A (80 ng/mL), HREC organized into networks of tubular structures mimicking capillary formation in neoangiogenesis (Figure 4A).
The tube formation assay was analyzed in vitro in BD Matrigel, following the manufacturer’s instructions (BD, Bedford). In brief, 96-well plates were coated with 50 μL of Matrigel and allowed to solidify at 37 °C for 2 h. HREC were seeded at 1.5 × 10^4 cells/well in 100 μL of medium with (±)-1, (+)-1, or (−)-1 in the presence or absence of VEGF-A (80 ng/mL), AC927, and PTZ. After […] of incubation, tubelike structures were photographed at 10× magnification using an inverted microscope (Leica DM IRB) equipped with a CCD camera. Tube formations were quantified with ImageJ software (NIH, Bethesda, MD).

Another data set has as its system human UM 92-1 cells. As to the kind of experiment: Crystal violet proliferation assay in human UM 92-1 cells. The settings on record: for IC50: 48 h. It counts as cell-based. As for the experimental part: Then, actions on cell proliferation were examined by crystal violet staining (Figure 6).
HREC and human 92-1 cell (seeded 4 × 10^3 and grown for 24 h at optimum culture conditions) proliferation was measured using crystal violet staining after treatment in 96-well plates with the indicated concentrations of chemicals for an additional 48 h. Control cells received an equal volume of vehicle (DMSO). At the end of the treatment, each well was washed with phosphate-buffered saline (PBS). Following this, the cells were fixed (in 4% paraformaldehyde) and stained with crystal violet solution (0.5% in 20% methanol for HREC or 1% aqueous solution for 92-1 cells). Subsequently, the plate was washed with water and left to dry. Crystal violet staining was evaluated by measuring the absorbance at 570 nm or 590 nm, after crystal violet extraction with 10% acetic acid (at room temperature for 10 min), with a microplate reader with the plate reader (Synergy 2-BioTek). For quantification, each assay was carried out in triplicate.

Data set [4] deals with human 92-1 uveal melanoma cells. As to the kind of experiment: Wound healing assay (cell migration) in human 92-1 uveal melanoma cells. Type of data set: cell-based. The settings on record: for effect on 92-1 cell migration: 3 μM, over 48 h time courses; for IC50: Homo sapiens, read-out: IC50, inhibition of 92-1 cell migration (wound healing). As for the experimental part:
Finally, tumor cell migration was explored with the wound healing assay (Figure 7). (±)-1, (+)-1, and (−)-1 inhibited 92-1 cell migration over 48 h time courses (Figure 7A). […] In particular, the derivative (−)-1 exerted the highest antimigratory effects compared to the (+)-enantiomer (>10-fold) or the racemic mixture (±)-1 (>40-fold; Figure 7B). These actions closely mirror those observed in HREC migration (Figure 3) and could similarly reflect signaling through σ receptors by the HP-mII molecular component of the prodrugs, without VPA/HDAC involvement. Indeed, their differential potencies in motility inhibition (Figure 7) are aligned with increasing binding affinities for σ2 receptors from (±)-1 to (+)-1 and (−)-1 (Table 2), thus implicating the stereochemical diversity of HP-mII enantiomeric components as an underlying molecular mechanism able to regulate cell migration.
as §1

The mark [5] stands for this setting: Homo sapiens, read-out: IC50 on human 92-1 cells (proliferation, crystal violet), 48 h.
Setting [6] is: read-out: IC50 on human 92-1 cells (proliferation, crystal violet).

For `CCCC(CCC)C(=O)OC(CCCN1CCC(O)(c2ccc(Cl)cc2)CC1)c1ccc(F)cc1` (racemic) [(±)-1], in data set [1], the “Kobs, enzymatic stability” value came to 2.96 ± 0.01 h^–1. Besides, the half-life at 3.8 µM in data set [1] is 14 ± 0.18 min. Moreover, in data set [2], the “effect of AC927 cotreatment on the compound's inhibition of VEGF-A-mediated HREC motility” value was “significantly, but partially, opposed”. For the same compound, the “effect of PTZ cotreatment on the compound's inhibition of VEGF-A-mediated HREC motility” value in data set [2] (80 ng/mL VEGF-A) was “significantly, but partially, opposed”. Besides, the “effect of AC927 on the compound's action on VEGF-A-stimulated tube formation” value in data set [3] (5 μM compound + 2 μM AC927, 80 ng/mL VEGF-A) was “partially and equally blocked”. In addition, the “effect of PTZ on the compound's action on VEGF-A-stimulated tube formation” value in data set [3] (5 μM compound + 2 μM PTZ, 80 ng/mL VEGF-A) was “partially and equally blocked”. Besides, the “effect on VEGF-A-stimulated tube formation in HREC” value (“effect … in HREC” for short) in data set [3] (80 ng/mL VEGF-A) is given as “blocked”. In addition, the “effect of PTZ, AC927 or their combination on the antiproliferative effects of the compound in 92-1 cells” value in the data set with human UM 92-1 cells (5 μM compound, PTZ 2 μM, AC927 2 μM) is listed as “did not perturb”. Further, the IC50 with human UM 92-1 cells (setting [5]) turned out to be 5.46 µM; in the data set on human UM 92-1 cells (setting [6]) it was 5.5 ± 0.74 µM; in data set [4] (48 h), 4.22 µM. Moreover, the “antiproliferative effect with respect to VPA alone” value in the data set with human UM 92-1 cells (UM 92-1 cells) is on record as “about 400 fold”. Further, the “effect on 92-1 cell migration” value in data set [4] is listed as “inhibited”.
Regarding `CCCC(CCC)C(=O)O[C@H](CCCN1CCC(O)(c2ccc(Cl)cc2)CC1)c1ccc(F)cc1` [(+)-1], the “Kobs, enzymatic stability” value in data set [1] is 1.60 ± 0.005 h^–1. The half-life at 3.8 µM in data set [1] was 26.04 ± 0.12 min. Moreover, in data set [2], the “effect of AC927 cotreatment on the compound's inhibition of VEGF-A-mediated HREC motility” value was “reduced”. For the same compound, the “effect of PTZ cotreatment on the compound's inhibition of VEGF-A-mediated HREC motility” value in data set [2] (80 ng/mL VEGF-A) was “significantly and completely blocked”. The “effect … in HREC” value in data set [3] (80 ng/mL VEGF-A) was “blocked”. Besides, the IC50 in the data set with human UM 92-1 cells (setting [5]) is 4.95 µM; with human UM 92-1 cells (setting [6]), 4.9 ± 0.58 µM; in data set [4] (48 h) it was 1.15 µM. For the same compound, the “effect on 92-1 cell migration” value in data set [4] is “inhibited”.
On to `CCCC(CCC)C(=O)O[C@@H](CCCN1CCC(O)(c2ccc(Cl)cc2)CC1)c1ccc(F)cc1` [(−)-1], for which, in data set [1], the “Kobs, enzymatic stability” value was found to be 2.15 ± 0.03 h^–1. Moreover, in data set [1], the half-life at 3.8 µM was 19.3 ± 0.6 min. Besides, the “effect of AC927 cotreatment on the compound's inhibition of VEGF-A-mediated HREC motility” value in data set [2] is listed as “prevented, in part”. For the same compound, the “effect on VEGF-A-mediated HREC migration (wound healing)” value in data set [2] (5 μM, 80 ng/mL VEGF-A) is “highest reduction”. Moreover, the “effect … in HREC” value in data set [3] (80 ng/mL VEGF-A) was “blocked”. The IC50 with human UM 92-1 cells (setting [5]) worked out at 4.45 µM; in the data set on human UM 92-1 cells (setting [6]), 4.4 ± 0.68 µM; in data set [4] (48 h), 0.09 µM. Further, the “effect on 92-1 cell migration” value in data set [4] was “inhibited”. Also, the “antimigratory effect compared to the (+)-enantiomer” value in data set [4] (92-1 cells, 48 h) is > 10 fold. The “antimigratory effect compared to the racemic mixture (±)-1” value in data set [4] (92-1 cells, 48 h) is recorded as > 40 fold.
